Experimental data from patent publication US20240279684A1, “CYTOSOLIC DELIVERY OF GENOME EDITING TOOLS” (SAPREME TECHNOLOGIES B.V., priority 2021, published 2024).

Test system: GFP-expressing Neuro-2A-GFP-cells
Test: GFP-knockout via Cas9/gRNA(GFP) nanoplexes, FITC-H flow cytometry
Type: cell-based, murine
Details: for cells not considered fluorescent: GE1741-co-application
Protocol: FIG. 6A-E. GFP-Knockout of GFP-expressing Neuro-2A-GFP-cells via PDD (Cas9-DNA, gRNA (GFP)-DNA)-nanoplexes±saponin administration (co-transfection). GFP expressing Neuro-2A-cells were transfected via co-transfection of Cas9-DNA-plasmid and gRNA (GFP)-DNA-plasmid in a ratio of 4:0.5:0:5, with 500 ng of each DNA/well and 4.000 ng poly-lysine K16 peptide perwell. […] With saponin-Co-administration, the FITC-H was decreased by 10% (FIG. 6D) and the amount of cells not considered “fluorescent” compared to negative control, was increased by 7.5% (FIG. 6E).; n 3. FIG. 6A: FACS results with negative control; FIG. 6B: FACS results with PDD(Cas9-DNA, gRNA(GFP)-DNA), 4:1; FIG. 6C: FACS results of PDD(Cas9-DNA, gRNA(GFP)-DNA), 4:1+GE1741; FIG. 6D: values for the median FITC-H for the test samples of FIG. 6A-C and the control Lipofectamine3000DD(Cas9-DNA); FIG. 6E: amount of non-fluorescent cells in the test samples of FIGS. 6A-C and the control Lipofectamine3000DD(Cas9-DNA).
FIG. 7A-E. GFP-Knockout of GFP-expressing Neuro-2A-cells via PD (Cas9-gRNA (GFP)-DNA)-nanoplexes±saponin administration (All-in-one-transfection). GFP expressing Neuro-2A-cells were transfected via “All-in-one”-transfection of a Cas9-gRNA (GFP)-DNA-plasmid in a ratio of 4:1, 500 ng of each DNA/well. […] FIG. 7A: FACS results with negative control; FIG. 7B: FACS results with PD(Cas9-gRNA(GFP)-DNA, 4:1; FIG. 7C: FACS results of PD(Cas9-gRNA(GFP)-DNA, 4:1+GE1741; FIG. 7D: values for the median FITC-H for the test samples of FIG. 7A-C and for PD(Cas9-gRNA(GFP)-DNA, 8:1 and PD(Cas9-gRNA(GFP)-DNA, 8:1+GE1741; FIG. 7E: amount of non-fluorescent cells in the test samples of FIG. 7A-C and for PD(Cas9-gRNA(GFP)-DNA, 8:1 and PD(Cas9-gRNA(GFP)-DNA, 8:1+GE1741.
After the successful delivery of Cas9-DNA with GFP-driven fluorescence has been established, the inventors next tested the functionality of Cas9-transfections. GFP-expressing Neuro-2A-GFP-cells were therefore acquired. The aim of the test was to show and visualize the knock-out of the GFP-gene with a CRISPR-Cas9-gene knock-out. Therefore, Cas9-DNA (i.e. a plasmid DNA) was, either co-transfected with a gRNA-DNA-plasmid (PDD), or delivered in one plasmid DNA (“All-In-One-Plasmid”) coding for Cas9 and gRNA (PD) and expressing both Cas9 and guide RNA (FIG. 8, FIG. 9). The effect of GE1741-co-application during transfection of the cells was investigated via decrease of fluorescence intensity (FITC-H median & separation of the dot plot in FITC-H & FSC related quarters). […] To improve gene knock-out efficiency, a number of different gRNA-sequences was tested, in order to select the most efficient target sequence for the gRNA. The initially and further applied gRNA-sequences were obtained through a database with efficiency information. For selection of an optimal gRNA sequence, the GFP-gene sequence of the transfected cell line has to be known as many GFP-sequences are available. Further, the gene knock-out requires a sensitive assay, by which minimal changes can be detected. Within promotor-driven highly fluorescing cells, single gene knock-out possibly could not be identified.

CC(=O)OC1C(C)OC(OC2C(C)OC(OC(=O)C34CCC(C)(C)CC3C3=CCC5C6(C)CCC(OC7OC(C(=O)O)C(O)C(OC8OCC(O)C(O)C8O)C7OC7OC(CO)C(O)C(O)C7O)C(C)(C=O)C6CCC5(C)C3(C)CC4O)C(OC3OC(C)C(OC4OCC(O)C(OC5OCC(O)C(O)C5O)C4O)C(O)C3O)C2O)C(O)C1OC(C)=O (stereo not shown) [GE1741]
cells successfully transfected with Cas9-DNA: 30%
cells not considered fluorescent (All-In-One-Plasmid (PD)): 11%
FITC-H median change (in words) (All-in-one PD (Cas9-gRNA(GFP)-DNA)): No FITC-H could be observed
amount of cells considered fluorescent, elevated by (All-in-one PD (Cas9-gRNA(GFP)-DNA), PD mass ratio 8:1): 11%
decrease of FITC-H median (co-transfection PDD (Cas9-DNA, gRNA(GFP)-DNA) 4:0.5:0.5, with saponin): 10%
increase of cells not considered fluorescent compared to negative control (co-transfection PDD (Cas9-DNA, gRNA(GFP)-DNA), with saponin): 7.5%
cells not considered fluorescent (co-transfection with gRNA-DNA-plasmid (PDD)): 10%
